Experimental data taken from patent US10479795B2 (Incyte Corporation, priority 2016, dated 2019).
Structures can show the parent of a compound that is named as a salt. Where two headings read alike, the source gives them in different places.

Legend:
[1] = biological target: PI3Kδ (p110δ/p85α) Recombinant Human Protein (Homo sapiens (Human), UniProt O00329); assay: PI3Kδ Scintillation Proximity Assay; format: biochemical
Outline: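 Recombinant human p110δ/p85α (3.4 nM) with 20 μM PIP2 and 2 μM ATP plus [γ-33P]ATP, in 20 mM MOPS pH 6.7, 10 mM MgCl2, 5 mM DTT, 0.03% CHAPS, 2% DMSO; 120 min at room temperature. Product captured on WGA SPA beads, scintillation counted; IC50 from percent-of-control curves.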

[2] = system: Phosphorylated Ribosomal Protein S6 (RPS6); assay: THP-1 RPS6 ELISA Assay; format: cell-based, Human; conditions: THP-1 cells, read-out: PI3Kγ_THP1_RPS6_ELISA IC50
Outline: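 Serum-starved THP-1 cells were preincubated with a concentration range of compound for 2 h at 37 °C, then stimulated with 10 nM MCP-1 for 15 min. Phospho-RPS6 in lysates was quantified by ELISA at 450 nm. IC50 came from percent inhibition versus log inhibitor concentration.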

[3] = biological target: PI3Kγ (p110γ) Recombinant Human Protein (Homo sapiens (Human), UniProt P48736); assay: PI3K-γ Scintillation Proximity Assay; format: biochemical; conditions: read-out: PI3Kγ IC50
PI3Kγ (p110γ) Recombinant Human Protein, sequence (P48736 whole entry): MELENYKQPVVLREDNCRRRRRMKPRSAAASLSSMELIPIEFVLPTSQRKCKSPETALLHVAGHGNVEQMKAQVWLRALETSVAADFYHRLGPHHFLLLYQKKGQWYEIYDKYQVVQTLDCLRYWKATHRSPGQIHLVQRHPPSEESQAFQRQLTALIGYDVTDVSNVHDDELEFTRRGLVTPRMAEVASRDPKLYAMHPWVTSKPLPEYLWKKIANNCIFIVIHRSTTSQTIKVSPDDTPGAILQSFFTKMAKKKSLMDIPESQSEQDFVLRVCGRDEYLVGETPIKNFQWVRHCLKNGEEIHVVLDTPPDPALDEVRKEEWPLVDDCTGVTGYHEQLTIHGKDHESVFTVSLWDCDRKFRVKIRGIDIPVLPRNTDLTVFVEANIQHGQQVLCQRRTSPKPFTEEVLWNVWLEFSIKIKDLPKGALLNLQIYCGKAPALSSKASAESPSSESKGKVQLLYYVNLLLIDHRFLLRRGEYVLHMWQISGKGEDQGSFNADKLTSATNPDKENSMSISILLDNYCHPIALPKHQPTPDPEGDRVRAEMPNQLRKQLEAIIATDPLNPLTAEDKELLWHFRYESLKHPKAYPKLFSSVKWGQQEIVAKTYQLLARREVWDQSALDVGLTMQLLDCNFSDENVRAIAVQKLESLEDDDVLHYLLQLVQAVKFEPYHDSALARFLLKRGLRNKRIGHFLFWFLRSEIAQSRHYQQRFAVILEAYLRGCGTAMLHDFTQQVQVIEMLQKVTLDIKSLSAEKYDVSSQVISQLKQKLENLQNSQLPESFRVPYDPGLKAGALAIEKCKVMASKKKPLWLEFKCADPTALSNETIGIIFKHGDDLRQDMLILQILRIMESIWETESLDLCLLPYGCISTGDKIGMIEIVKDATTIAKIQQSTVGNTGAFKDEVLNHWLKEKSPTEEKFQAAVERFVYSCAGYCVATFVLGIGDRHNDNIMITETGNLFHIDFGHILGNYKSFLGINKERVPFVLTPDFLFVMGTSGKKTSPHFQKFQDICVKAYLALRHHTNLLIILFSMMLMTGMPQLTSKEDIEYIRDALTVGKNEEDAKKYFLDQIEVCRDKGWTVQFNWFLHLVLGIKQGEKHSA
Outline: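 Recombinant human p110γ assayed at room temperature in 20 mM MOPS pH 6.7, 10 mM MgCl2, 5 mM DTT, 0.03% CHAPS, 2% DMSO, with 20 μM PIP2 and 2 μM ATP plus [γ-33P]ATP. Product captured on WGA SPA beads overnight and counted; IC50 fitted from % of solvent-control activity versus log inhibitor concentration.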

PI3Kδ (p110δ/p85α) Recombinant Human Protein, sequence (O00329 whole entry): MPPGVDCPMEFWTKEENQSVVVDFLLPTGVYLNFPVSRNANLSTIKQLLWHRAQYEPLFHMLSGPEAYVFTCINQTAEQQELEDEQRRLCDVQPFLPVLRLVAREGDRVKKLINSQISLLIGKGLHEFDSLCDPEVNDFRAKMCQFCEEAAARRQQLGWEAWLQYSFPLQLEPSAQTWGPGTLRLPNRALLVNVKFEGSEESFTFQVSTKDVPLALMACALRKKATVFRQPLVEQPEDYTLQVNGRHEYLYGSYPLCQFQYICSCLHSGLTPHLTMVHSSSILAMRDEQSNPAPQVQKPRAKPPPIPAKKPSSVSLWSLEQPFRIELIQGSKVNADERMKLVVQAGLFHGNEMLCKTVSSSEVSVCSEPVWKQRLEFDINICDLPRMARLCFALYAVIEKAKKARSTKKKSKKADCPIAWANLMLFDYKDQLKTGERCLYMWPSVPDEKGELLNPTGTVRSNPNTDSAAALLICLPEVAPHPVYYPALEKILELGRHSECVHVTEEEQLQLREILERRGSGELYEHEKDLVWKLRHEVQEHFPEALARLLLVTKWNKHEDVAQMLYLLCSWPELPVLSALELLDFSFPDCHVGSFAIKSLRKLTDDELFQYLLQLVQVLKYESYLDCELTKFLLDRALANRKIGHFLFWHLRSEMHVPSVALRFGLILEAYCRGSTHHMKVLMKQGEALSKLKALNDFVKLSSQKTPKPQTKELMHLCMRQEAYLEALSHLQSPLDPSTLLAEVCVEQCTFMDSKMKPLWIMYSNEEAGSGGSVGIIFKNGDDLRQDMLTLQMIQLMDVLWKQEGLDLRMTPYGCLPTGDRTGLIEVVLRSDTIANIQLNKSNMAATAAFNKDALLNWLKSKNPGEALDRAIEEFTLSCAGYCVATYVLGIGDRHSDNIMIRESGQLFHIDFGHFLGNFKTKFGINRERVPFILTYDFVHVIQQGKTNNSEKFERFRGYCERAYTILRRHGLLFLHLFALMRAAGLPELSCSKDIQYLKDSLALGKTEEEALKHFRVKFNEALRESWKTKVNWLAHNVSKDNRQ
PI3Kδ (p110δ/p85α) Recombinant Human Protein, sequence (P27986 whole entry partner): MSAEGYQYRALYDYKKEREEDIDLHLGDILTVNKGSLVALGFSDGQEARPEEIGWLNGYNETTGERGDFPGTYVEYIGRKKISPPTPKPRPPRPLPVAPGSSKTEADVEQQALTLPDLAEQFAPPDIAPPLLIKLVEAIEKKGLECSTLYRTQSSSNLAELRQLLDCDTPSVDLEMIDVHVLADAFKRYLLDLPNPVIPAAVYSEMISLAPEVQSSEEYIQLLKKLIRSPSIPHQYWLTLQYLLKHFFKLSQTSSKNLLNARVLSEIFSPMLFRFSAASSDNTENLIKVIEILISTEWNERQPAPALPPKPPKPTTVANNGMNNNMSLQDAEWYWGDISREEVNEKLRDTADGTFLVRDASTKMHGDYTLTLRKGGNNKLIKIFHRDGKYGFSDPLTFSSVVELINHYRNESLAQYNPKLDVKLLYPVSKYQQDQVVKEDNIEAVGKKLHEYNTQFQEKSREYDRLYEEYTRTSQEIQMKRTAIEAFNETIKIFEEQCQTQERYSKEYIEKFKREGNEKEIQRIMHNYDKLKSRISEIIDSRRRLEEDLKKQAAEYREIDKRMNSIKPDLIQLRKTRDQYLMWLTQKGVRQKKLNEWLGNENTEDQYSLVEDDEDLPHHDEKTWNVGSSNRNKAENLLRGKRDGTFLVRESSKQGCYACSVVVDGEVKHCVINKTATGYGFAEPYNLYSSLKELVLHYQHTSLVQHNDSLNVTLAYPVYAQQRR

| IC50 [1] [µM] | IC50 ([2]; Homo sapiens) [µM] | IC50 [3] [µM] | SMILES | IC50 [2] [µM] |
| --- | --- | --- | --- | --- |
| 0.1 to 0.5 | 0.1 to 0.5 | < 0.1 | Cc1ccc(S(=O)(=O)N2CC3(C2)CC(O)(C(F)(F)F)C3)cc1-c1cnc2c(N)ncnn12 [Example 141, 2-((3-(4-aminoimidazo[2,1-f][1,2,4]triazin-7-yl)-4-methylphenyl)sulfonyl)-6-(trifluoromethyl)-2-azaspiro[3.3]heptan-6-ol] | – |
| 0.5 to 2 | 0.1 to 0.5 | < 0.1 | Cc1ccc(S(=O)(=O)N2CCC3(CCOCC3)C2)cc1-c1cnc2c(N)ncnn12 [Example 142, 7-(5-((8-oxa-2-azaspiro[4.5]decan-2-yl)sulfonyl)-2-methylphenyl)imidazo[2,1-f][1,2,4]triazin-4-amine] | – |
| 0.1 to 0.5 | > 1 | < 0.1 | Cc1ccc(S(=O)(=O)N2CC3(COC3)C2)cc1-c1cnc2c(N)ncnn12 [Example 143, 7-(5-((2-oxa-6-azaspiro[3.3]heptan-6-yl)sulfonyl)-2-methylphenyl)imidazo[2,1-f][1,2,4]triazin-4-amine] | – |
| 0.1 to 0.5 | 0.1 to 0.5 | < 0.1 | Cc1ccc(S(=O)(=O)N2C(C)COCC2C)cc1-c1cnc2c(N)ncnn12 (stereo not drawn) [Example 155, 7-(5-((3,5-dimethylmorpholino)sulfonyl)-2-methylphenyl)imidazo[2,1-f][1,2,4]triazin-4-amine] | – |
| 0.5 to 2 | 0.5 to 1 | < 0.1 | Cc1ccc(S(=O)(=O)N2CCOCC2(C)C)cc1-c1cnc2c(N)ncnn12 [Example 156, 7-(5-((3,3-dimethylmorpholino)sulfonyl)-2-methylphenyl)imidazo[2,1-f][1,2,4]triazin-4-amine] | – |
| 0.5 to 2 | 0.5 to 1 | < 0.1 | Cc1ccc(S(=O)(=O)N2C(C)CCCC2CO)cc1-c1cnc2c(N)ncnn12 (stereo not drawn) [Example 157, (1-((3-(4-aminoimidazo[2,1-f][1,2,4]triazin-7-yl)-4-methylphenyl)sulfonyl)-6-methylpiperidin-2-yl)methanol] | – |
| 0.1 to 0.5 | 0.1 to 0.5 | < 0.1 | Cc1ccc(S(=O)(=O)N2CCNC[C@@H]2CO)cc1-c1cnc2c(N)ncnn12 [Example 166, (R)-(1-((3-(4-aminoimidazo[2,1-f][1,2,4]triazin-7-yl)-4-methylphenyl)sulfonyl)piperazin-2-yl)methanol] | – |
| 0.1 to 0.5 | – | < 0.1 | Cc1ccc(S(=O)(=O)NC23CCC(CC2)C3)cc1-c1cnc2c(N)ncnn12 [Example 180, 3-(4-aminoimidazo[1,2-f][1,2,4]triazin-7-yl)-N-(bicyclo[2.2.1]heptan-1-yl)-4-methylbenzenesulfonamide trifluoroacetate salt] | 0.1 to 0.5 |
| < 0.1 | < 0.1 | < 0.1 | Cc1ccc(S(=O)(=O)N[C@H]2CC[C@H](CC#N)CC2)cc1-c1cnc2c(N)ncnn12 [Example 184, 3-(4-aminoimidazo[2,1-f][1,2,4]triazin-7-yl)-N-(trans-4-(cyanomethyl)cyclohexyl)-4-methylbenzenesulfonamide trifluoroacetate] | – |
| 0.5 to 2 | 0.5 to 1 | < 0.1 | Cc1ccc(S(=O)(=O)NC2(C#N)CC2)cc1-c1cnc2c(N)ncnn12 [Example 189, 3-(4-aminoimidazo[2,1-f][1,2,4]triazin-7-yl)-N-(1-cyanocyclopropyl)-4-methylbenzenesulfonamide] | – |
| 0.5 to 2 | > 1 | < 0.1 | Cc1ccc(S(=O)(=O)NC(C)(C)C(N)=O)cc1-c1cnc2c(N)ncnn12 [Example 190, 2-((3-(4-aminoimidazo[2,1-f][1,2,4]triazin-7-yl)-4-methylphenyl)sulfonamido)-2-methylpropanamide trifluoroacetate] | – |
| 0.1 to 0.5 | 0.5 to 1 | < 0.1 | Cc1ccc(S(=O)(=O)NC2(C#N)CCC2)cc1-c1cnc2c(N)ncnn12 [Example 192, 3-(4-aminoimidazo[2,1-f][1,2,4]triazin-7-yl)-N-(1-cyanocyclobutyl)-4-methylbenzenesulfonamide trifluoroacetate] | – |
| 0.5 to 2 | 0.1 to 0.5 | < 0.1 | Cc1ccc(S(=O)(=O)N2CCC3(CCCO3)CC2)cc1-c1cnc2c(N)ncnn12 [Example 194, 7-(5-((1-Oxa-8-azaspiro[4.5]decan-8-yl)sulfonyl)-2-methylphenyl)imidazo[2,1-f][1,2,4]triazin-4-amine] | – |
| 0.5 to 2 | 0.5 to 1 | < 0.1 | Cc1ccc(S(=O)(=O)N2CC[C@H](O)C2)cc1-c1cnc2c(N)ncnn12 [Example 197, (S)-1-((3-(4-Aminoimidazo[2,1-f][1,2,4]triazin-7-yl)-4-methylphenyl)sulfonyl)pyrrolidin-3-ol] | – |
| 0.5 to 2 | 0.5 to 1 | < 0.1 | CC(=O)NC1CCN(S(=O)(=O)c2ccc(C)c(-c3cnc4c(N)ncnn34)c2)C1 (stereo not drawn) [Example 199, N-(1-((3-(4-Aminoimidazo[2,1-f][1,2,4]triazin-7-yl)-4-methylphenyl)sulfonyl)pyrrolidin-3-yl)acetamide] | – |
| 0.1 to 0.5 | 0.5 to 1 | < 0.1 | Cc1ccc(S(=O)(=O)N2CCC3(CCCOC3)C2)cc1-c1cnc2c(N)ncnn12 (stereo not drawn) [Example 203, 7-(5-((7-Oxa-2-azaspiro[4.5]decan-2-yl)sulfonyl)-2-methylphenyl)imidazo[2,1-f][1,2,4]triazin-4-amine] | – |

More lines, now with the values behind:

| SMILES | IC50 [1] [µM] | IC50 ([2]; Homo sapiens) [µM] | IC50 [3] [µM] | IC50 [2] [µM] |
| --- | --- | --- | --- | --- |
| Cc1ccc(S(=O)(=O)N2CC(O)(C3CC3)C2)cc1-c1cnc2c(N)ncnn12 [Example 144, 1-((3-(4-aminoimidazo[2,1-f][1,2,4]triazin-7-yl)-4-methylphenyl)sulfonyl)-3-cyclopropylazetidin-3-ol, TFA] | 0.1 to 0.5 | – | < 0.1 | 0.5 to 1 |
| Cc1ccc(S(=O)(=O)N2CC3(CC(O)C3)C2)cc1-c1cnc2c(N)ncnn12 [Example 145, 2-((3-(4-aminoimidazo[2,1-f][1,2,4]triazin-7-yl)-4-methylphenyl)sulfonyl)-2-azaspiro[3.3]heptan-6-ol, TFA] | 0.1 to 0.5 | – | < 0.1 | 0.1 to 0.5 |
| Cc1ccc(S(=O)(=O)N(CCC#N)C2CCCC2)cc1-c1cnc2c(N)ncnn12 [Example 165, 3-(4-aminoimidazo[2,1-f][1,2,4]triazin-7-yl)-N-(2-cyanoethyl)-N-cyclopentyl-4-methylbenzenesulfonamide] | 0.1 to 0.5 | 0.5 to 1 | < 0.1 | – |
| Cc1ccc(S(=O)(=O)N(CCC#N)CCCO)cc1-c1cnc2c(N)ncnn12 [Example 175, 3-(4-aminoimidazo[2,1-f][1,2,4]triazin-7-yl)-N-(2-cyanoethyl)-N-(3-hydroxypropyl)-4-methylbenzenesulfonamide] | 0.1 to 0.5 | 0.1 to 0.5 | < 0.1 | – |
| Cc1ccc(S(=O)(=O)NC23CCC(CC2)CC3)cc1-c1cnc2c(N)ncnn12 [Example 181, 3-(4-aminoimidazo[1,2-f][1,2,4]triazin-7-yl)-N-(bicyclo[2.2.2]octan-1-yl)-4-methylbenzenesulfonamide trifluoroacetate salt] | < 0.1 | – | < 0.1 | 0.1 to 0.5 |
| Cc1ccc(S(=O)(=O)NC23CCN(CC2)CC3)cc1-c1cnc2c(N)ncnn12 [Example 182, 3-(4-aminoimidazo[1,2-f][1,2,4]triazin-7-yl)-4-methyl-N-(quinuclidin-4-yl)benzenesulfonamide trifluoroacetate salt] | 0.5 to 2 | – | < 0.1 | 0.5 to 1 |
| Cc1ccc(S(=O)(=O)N[C@H]2CC[C@H](CC#N)OC2)cc1-c1cnc2c(N)ncnn12 [Example 183, 3-(4-aminoimidazo[2,1-f][1,2,4]triazin-7-yl)-N-((3S,6R)-6-(cyanomethyl)tetrahydro-2H-pyran-3-yl)-4-methylbenzenesulfonamide] | 0.1 to 0.5 | < 0.1 | < 0.1 | – |
| Cc1ccc(S(=O)(=O)NC23CCC(O)(CC2)CC3)cc1-c1cnc2c(N)ncnn12 [Example 185, 3-(4-aminoimidazo[2,1-f][1,2,4]triazin-7-yl)-N-(4-hydroxybicyclo[2.2.2]octan-1-yl)-4-methylbenzenesulfonamide] | 0.1 to 0.5 | 0.1 to 0.5 | < 0.1 | – |
| Cc1ccc(S(=O)(=O)NC23CCC(CO)(CC2)CC3)cc1-c1cnc2c(N)ncnn12 [Example 186, 3-(4-aminoimidazo[2,1-f][1,2,4]triazin-7-yl)-N-(4-(hydroxymethyl)bicyclo[2.2.2]octan-1-yl)-4-methylbenzenesulfonamide] | 0.1 to 0.5 | 0.1 to 0.5 | < 0.1 | – |
| Cc1ccc(S(=O)(=O)NC23CCC(C#N)(CC2)CC3)cc1-c1cnc2c(N)ncnn12 [Example 187, 3-(4-aminoimidazo[2,1-f][1,2,4]triazin-7-yl)-N-(4-cyanobicyclo[2.2.2]octan-1-yl)-4-methylbenzenesulfonamide] | 0.1 to 0.5 | 0.1 to 0.5 | < 0.1 | – |
| Cc1ccc(S(=O)(=O)NC23CCC(F)(CC2)CC3)cc1-c1cnc2c(N)ncnn12 [Example 188, 3-(4-aminoimidazo[2,1-f][1,2,4]triazin-7-yl)-N-(4-fluorobicyclo[2.2.2]octan-1-yl)-4-methylbenzenesulfonamide] | < 0.1 | 0.1 to 0.5 | < 0.1 | – |
